Experiments:
[1] = system: southern root-knot nematode (Meloidogyne incognita); assay: Test method 7: soil mixing and irrigation, tomato seedlings in nematode-polluted soil, root-knot index by Zeck; type: in vivo; conditions: 1,000 ppm
Procedure: Test compounds 60 mg are dissolved in acetone 600 μL containing Tween (Registered trade mark) by 5%, and thereto is added water to prepare a diluted solution containing a prescribed concentration of the test compound.
The diluted solution 20 mL are soil which is polluted with southern root-knot nematode (Meloidogyne incognita) 400 mL are mixed, and a root of healthy tomato seedlings (on the developmental stage of third to fourth true leaf) is transplanted in the soil. After the transplanting, the diluted solution 40 mL is irrigated onto soli of tomato seedlings. After 10 days, the roots are pull out from the soil, washed and the damage degree of the root (root-knot degree) is examined according to a root-knot index by Zeck (Zeck, W. M. (1971): Pflanzenschutz-Nachrichten. Bayer AG, 24, 141-144).
• 0: No root-knots is recognized. • 1: By careful observation, several small root-knots can be recognized. • 2: Several small root-knots can be easily confirmed similarly to 1. • 3: Many small root-knots are found, and some of which are fused. A function of the root is not almost lost. • 4: Many small root-knots are found, and some large ones are found. […]

[2] = system: cotton worm (Spodoptera litura); assay: Test method 2: foliar spray on cabbage seedling, cotton worm larvae; type: in vivo; conditions: 144 h, read-out: mortality of insects
Procedure: (§1) Test compounds are made to a formulation according to a similar method to that described in the Formulation Example 5, and thereto is added water containing 0.03 v/v % of Shindain (registered trademark) to prepare a diluted solution containing a prescribed concentration of the test compound.
(§2) Cabbage (Brassicae oleracea) seedling (on the developmental stage of the third to fourth true leaf) is planted in a cup, and the diluted solutions are sprayed into the seedling at a ratio of 20 mL/seedling. Thereafter, ten (10) cotton worm (Spodoptera litura) at the third instar larval stage are released. After 6 days, the number of the surviving insects is counted, and the mortality of insects is calculated by the following equation.

[3] = system: cotton aphids (Aphis gossypii); assay: Test method 3: foliar spray on cucumber seedling infested with cotton aphids; conditions: read-out: mortality of insects
[4] = system: western flower thrips (Frankliniella occidentalis); assay: Test method 5: sprayed cucumber leaf, western flower thrips larvae; type: in vivo; conditions: 144 h, read-out: mortality of insects
Procedure: as §1
Cucumber (Cucumber sativus) seedling (on the developmental stage of the second true leaf) is planted in a cup, and the diluted solutions are sprayed into the seedling at a ratio of 10 mL/seedling. Thereafter, the second true leaf is cut, and the cut leaf was placed in the cup, and approximately twenty (20) of larvae of western flower thrips (Frankliniella occidentalis) larvae are released onto the leaf. After 6 days, the number of the surviving insects is examined and the mortality of insects is calculated by the following equation.

[5] = system: brown planthoppers (Nilaparvata lugens); assay: Test method 4: foliar spray on rice seedling, brown planthopper larvae; type: in vivo; conditions: 144 h, read-out: mortality of insects
Procedure: as §1
Rice (Oryza sativa) seedling (on the developmental stage of the second true leaf) is planted in a cup, and the diluted solutions are sprayed into the seedling at a ratio of 10 mL/seedling. Thereafter, twenty (20) of 3rd instar larvae of brown planthoppers (Nilaparvata lugens) are released onto the rice leaves. After 6 days, the number of the surviving insects is examined and the mortality of insects is calculated by the following equation.

[6] = system: northern house mosquitos (Culex pipiens pipiens); assay: Test method 8: coated container contact test, northern house mosquito female adults; type: in vivo; conditions: 24 h, read-out: mortality of insects
Procedure: The test compounds are dissolved with acetone containing a surfactant, and the solution was then poured into a container of 20 mL contents, and the solution was coating uniformly in the inner face of the container such that the test compound is made 10 mg/m^2, and the surfactant is made 40 mg/m^2, and the container is dried.
Five (5) of female adult of northern house mosquitos (Culex pipiens pipiens) are placed in the contained, and the contained is put the lid. After the passing of the prescribed times, the state of the northern house mosquitos are examined, and the mortality is calculated by the following equation.

[7] = system: silverleaf whiteflies (Bemisia tabaci); assay: Test method 6: foliar spray on tomato seedling with silverleaf whitefly larvae; conditions: in Solanum lycopersicum, 168 h, read-out: mortality of insects
[8] = system: cotton worm (Spodoptera litura); assay: Test method 1: foliar spray on cabbage seedling, cotton worm larvae; type: in vivo; conditions: 144 h, read-out: mortality of insects
Procedure: The test compounds are made to a formulation according to a similar method to that described in the Formulation Example 5, and thereto is added water containing 0.03 v/v % of Shindain (registered trademark) to prepare a diluted solution containing a prescribed concentration of the test compound.
as §2

CC1=CC(=O)[C@H]2CC(=O)[C@H]3[C@](C)([C@@H]2C1)[C@H](Cl)[C@@]12OC(=O)C[C@]3(C)[C@]1(C)CC[C@]13C[C@@H](C)C[C@H](CN12)O3 [AA-1]
root-knot index ([1]; 20 mL mixed with 400 mL soil plus 40 mL irrigation, tomato seedlings, after 10 days, untreated group index 4): 1 (By careful observation, several small root-knots can be recognized.) | formation of root-knot ([1]; versus untreated group): reduced a formation of root-knot | mortality at 200 ppm [2]: ≥ 80% | mortality at 200 ppm [3]: ≥ 90% | mortality at 200 ppm [4]: ≥ 90% | mortality at 200 ppm [5]: ≥ 90% | mortality at 10 mg/m2 [6]: ≥ 80% | mortality at 200 ppm [7]: ≥ 90% | mortality at 200 ppm [8]: ≥ 80%

From patent US20250160330A1, “METHOD FOR CONTROLLING HARMFUL ARTHROPODS OR HARMFUL NEMATODES USING ZOANTHAMINE ANALOG” (SUMITOMO CHEMICAL COMPANY, LIMITED, priority 2022, published 2025)
